Data reported in US5804576A, “Derivatives of 5-androsten-17-ones and 5-androstan-17-ones” (Research Corporation Technologies, Inc., priority 1986, dated 1998).

How the values were obtained:
rat uterus [1] = assay: Uterotrophic test for estrogenic activity, oral; format: in vivo; details: 14 μg/kg oral; 3 days; n = 6
Source text: Uterotrophic Test for Estrogenic Activity. Compound 16 vs. DHEA and Estradiol-benzoate. Compounds Given by Oral Administration.
Twenty-two day old rats were obtained from Charles River Laboratories. Animals were used at 29 days of age. Test steroids were suspended by homogenization in sesame oil. Rats were orally intubated at 1-2 P.M. for 3 days with a test steroid in sesame oil or with sesame oil alone (control). On the 4th day the animals were killed and the uteri were removed and weighed.

[2] = tested on: rat uterus; mouse seminal vesicle plus prostate; assay: Sex steroid hormonal or anti-hormonal activity (estrogenic, anti-estrogenic, androgenic, anti-androgenic); details: in vivo
Protocol: Female CD rats, 26-27 days old, were injected subcutaneously for 3 days with one of the compounds of the present invention at 60 mg/kg in propylene glycol. Controls received propylene glycol alone. On the 4th day the rats were killed and the uteri were dissected out and weighed. The results are given below:
(§1) (a) Male A/J mice (5 weeks old) were obtained from the Jackson Laboratory and were housed in polycarbonate cages (5 mice/cage) in animal quarters maintained at 24°[…] C. with 12 hours of light and 12 hours of darkness each day. One week after arrival, the mice were placed on a chow diet containing one of the test compounds of the present invention at 0.36%. After 4 weeks of treatment, the above mice were killed, and the seminal vesicles and prostate glands were dissected out and weighed.

[3] = tested on: (3H) DMBA binding to skin DNA; assay: [3H]DMBA binding to mouse skin DNA, topical steroid; format: in vivo, mouse (A/J); details: topical; A/J mouse
Source text: Skin tumors can be induced in the mouse either by weekly application of a carcinogen such as […] (DMBA), or alternatively,by a single sub-threshold dose of the carcinogen followed by twice weekly applications of the tumor promoter tetradecanoylphorbol-13-acetate (TPA). In order to exert its carcinogenic effect, DMBA must be metabolized by an NADPH-dependent mixed-function oxidase to chemically reactive intermediates which bind covalently to DNA and produce mutations leading to malignant transformation. […] This effect of DHEA very probably is a result of the inhibition of G6PDH and lowering of the intracellular pool of NADPH, which is a co-factor for the mixed-function oxidase activation of DMBA.
Binding of [^3 H]DMBA to mouse skin DNA was determined as described in Pashko, L. L., and Schwartz, A. G. (1983), Effect of food restriction, dehydroepiandrosterone, or obesity on the binding of ^3 H-7,12-dimethylbenz(a)-anthracene to mouse skin DNA, J. Gerontol., 38, 8-12. Values are mean±SD for 3 individual determinations, with pooled tissue from 2 mice used for each determination. DHEA or testosterone (400 ug in 0.2 ml acetone) was applied to the skin one hour before [^3 H]DMBA. The mean weight of the food restricted mice was 18.5±1.0 gm, n=6, of the ad libitum fed, 27.4±1.0 gm, n=6, of the ad libitum fed treated with DHEA, 28.2±0.9 gm, n=6, and of the ad libitum fed treated with testosterone, 28.3±0.9 gm, n=6, following two weeks of feeding. The average food consumed was, in gm/mouse/day, 2.2, 3.8, 3.8 and 4.0 for the food restricted, ad libitum fed, ad libitum fed plus DHEA, and ad libitum fed plus testosterone groups, respectively.

[4] = Anti-obesity test (body weight, food consumption); format: in vivo, mouse (male A/J); details: for mean weekly weight ± S.D.: 0.36% of diet, n = 5
Protocol: Male A/J mice (5 weeks old) were obtained from the Jackson Laboratory and were housed in polycarbonate cages (5 mice/cage) in animal quarters maintained at 24°±1° C. with 12 hours of light and 12 hours of darkness each day. One week after arrival, the mice were placed on a chow diet containing varying concentrations of DHEA or other steroid. Animals were weighed weekly; food consumption was determined weekly by subtracting the amount of food remaining in the cage from the amount added.
Male A/J (5 weeks old) were obtained from the Jackson Laboratory and were housed in polycarbonate cages (5 mice/cage) in animal quarters maintained at 24°±1° C. with 12 hours of light and 12 hours of darkness each day. One week after arrival, the mice were placed on a diet containing either DHEA, 19, or without steroid. Animals were weighed weekly. The concentration of DHEA or 19 used in the food was 0.54%.
Male A/J mice (5 weeks old) were obtained from the Jackson Laboratory and were housed in polycarbonate cages (5 mice/cage) in animal quarters maintained at 24°±1° C. with 12 hours of light and 12 hours of darkness each day. One week after arrival, the mice were placed on a show diet containing DHEA, 16, or 21 at 0.36%. Animals were weighed weekly.

rat uterus [5] = assay: Estrogenic and anti-estrogenic activity (uterine weight, s.c., CD rats); format: in vivo, rat (female CD); details: 60 mg/kg s.c.; 3 days; Tables 16 and 17
Protocol: Female CD rats, 26-27 days old, were used. Rats were injected subcutaneously for 3 days with either DHEA or 16 in propylene glycol. Control rats received propylene glycol alone. The rats were killed on the 4th day and the uteri were removed and weighed.
Female CD rats, 26-27 days old, were injected subcutaneously for 3 days with one of the compounds of the present invention at 60 mg/kg in propylene glycol. Controls received propylene glycol alone. On the 4th day the rats were killed and the uteri were dissected out and weighed.

[6] = target: T1, purified bovine adrenal G6PDH (Bos taurus, UniProt F1MMK2); assay: Inhibition of purified bovine adrenal G6PDH; format: biochemical; details: for inhibition at 1 µM: Conc. 1 μm; for inhibition at 1 µM / inhibition at 10 µM: read-out: Percent Inhibition (G6PDH); for inhibition at 10 µM: Conc. 10 μm
T1 construct: full-length, wild type, no tag
Source text: The compounds listed below are screened as inhibitors of purified bovine adrenal G6PDH activity as one predictor of cancer preventive action. The assay for testing the inhibition of purified bovine adrenal G6PDH is according to the procedure by Oertel, G. W. and Rebelein, I. in Biochem. Biophys. Acta, 184, 459-460 (1969). The results are given below in Table I:
Both of the above tests, i.e., the inhibition of mammalian glucose-6-phosphate dehydrogenase (G6PDH) and the inhibition of tumor promoter (TPA) stimulation of ^3 H-thymidine incorporation in mouse epidermis are recognized as indicators of cancer prophylactic activity. The following Table compares the efficacy of representative compounds of the present invention in these two tests with that of DHEA: […]

[7] = tested on: seminal vesicles plus prostate glands; assay: Androgenic and anti-androgenic activity (seminal vesicle plus prostate weight); format: in vivo, mouse (male A/J); details: 0.36% of diet; 4 weeks; n = 5
Protocol: Male A/J mice (5 weeks old) were obtained from the Jackson Laboratory and were housed in polycarbonate cages (5 mice/cage) in animal quarters maintained at 24°±1° C. with 12 hours of light and 12 hours of darkness each day. One week after arrival, mice were placed on a chow diet containing either 0.18% or 0.09% 16 or without steroid. Mice were weighed weekly. After 4 weeks, the mice were killed, and the seminal vesicles plus prostate glands were dissected out and weighed.
as §1

[8] = tested on: TPA (Tumor Promoter) Stimulation of Mouse Epidermal DNA; assay: Inhibition of TPA stimulation of mouse epidermal DNA synthesis (3H-thymidine incorporation), oral; format: in vivo, mouse (ICR male); details: oral
Source text: Synthesis rate by orally administered steroids.
The inhibition of tumor promoter stimulation of mouse epidermal DNA synthesis rate by steroids may also contribute to cancer preventive activity. The following assay is used:
ICR male mice (7-9 weeks old) were shaved on the back 1-2 days before use. Only mice showing no hair regrowth were used. Animals were orally intubated with a particular steroid suspended by homogenization in sesame oil or with sesame oil alone (controls). One hour later TPA (10 μg in 0.2 ml of acetone) or acetone vehicle was applied topically to the shaved skin. Twenty hours later, mice were injected i.p. with 60 μCi of ^3 H-thymidine 20 minutes before sacrifice. The animals were killed by cervical dislocation and the residual hair was removed with a depilatory agent. Epidermal scrapings were prepared according to the procedures of Hennings et al. (Cancer Res. 28, 53, 1968), homogenized in distilled water at 4° C., and the macromolecules precipitated with 0.4N trichloroacetic acid (TCA). Following 6 washes with absolute ethanol at room temperature, the nucleic acids were hydrolyzed with 0.5N TCA at 70° C. for 5 minutes. The hydrolysate (0.2 ml aliquots) were counted in an Intertechnique scintillation counter and assayed for DNA by the diphenylamine reaction.
The data are expressed as counts per minute (cpm) of tritium per μg of DNA.
A similar oral dose-response experiment with compound 16 and DHEA was performed.
Both of the above tests, i.e., the inhibition of mammalian glucose-6-phosphate dehydrogenase (G6PDH) and the inhibition of tumor promoter (TPA) stimulation of ^3 H-thymidine incorporation in mouse epidermis are recognized as indicators of cancer prophylactic activity. The following Table compares the efficacy of representative compounds of the present invention in these two tests with that of DHEA:
Male ICR mice were orally intubated with steroid suspended in sesame oil (0.5 ml/mouse) at the indicated dose. Mice not receiving steroid were given sesame oil alone. One hour later mice received topical application of TPA and 20 hours later the rate of ^3 H-thymidine incorporation into the epidermis was determined as described in Table 4.
Male ICR mice were orally intubated with steroid suspended in sesame oil (0.5 ml/mouse) at the indicated dose. Mice not receiving steroid were given sesame oil alone. One hour later mice received topical application of TPA, and 20 hours later the rate of ^3 H-thymidine incorporation into the epidermis was determined as described in Table 4.

[9] = tested on: [3H]DMBA binding to skin DNA; assay: [3H]DMBA binding to skin DNA, oral steroid; format: in vivo, mouse (male A/J); details: 12 hours
Protocol: Male A/J mice were orally intubated with steroid suspended in sesame oil (0.5 ml/mouse) at the indicated dose. Mice not receiving steroid were given sesame oil alone. Food restricted mice received approximately 60% of food of Ad libitum fed for two weeks. One hour after oral intubation, topical [^3 H]DMBA was applied to the skin, and the amount bound to DNA was determined 12 hours later as described in Table 4.
Male A/J mice were orally intubated with steroid suspended in sesame oil (0.5 ml/mouse) at the indicated dose. Mice not receiving steroid were given sesame oil alone. One hour after oral intubation, topical [^3 H]DMBA was applied to the skin, and the amount bound to DNA was determined 12 hours later as described in Table 4.

T1 sequence (F1MMK2 31-70): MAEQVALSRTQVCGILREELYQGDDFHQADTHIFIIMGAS
T1 sequence (F1MMK2 101-575): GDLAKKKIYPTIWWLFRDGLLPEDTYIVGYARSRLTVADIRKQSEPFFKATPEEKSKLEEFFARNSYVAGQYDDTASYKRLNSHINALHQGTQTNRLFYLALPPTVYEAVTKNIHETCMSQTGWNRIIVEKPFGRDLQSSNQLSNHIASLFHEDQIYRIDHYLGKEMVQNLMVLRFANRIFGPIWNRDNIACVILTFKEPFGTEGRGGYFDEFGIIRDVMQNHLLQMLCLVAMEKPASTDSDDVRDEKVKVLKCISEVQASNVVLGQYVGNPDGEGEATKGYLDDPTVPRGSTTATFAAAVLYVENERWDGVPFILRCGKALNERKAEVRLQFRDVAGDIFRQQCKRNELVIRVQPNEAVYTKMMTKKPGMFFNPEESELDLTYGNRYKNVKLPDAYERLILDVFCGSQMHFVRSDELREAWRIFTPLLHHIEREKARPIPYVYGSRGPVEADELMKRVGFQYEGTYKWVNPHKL

C[C@]12CC[C@@H]3c4ccc(OC(=O)c5ccccc5)cc4CC[C@H]3[C@@H]1CC[C@@H]2O [Estradiol-benzoate, reference compound]
Mean Uterine Weight (rat uterus [1]): 244 ± 44 Mgs

C[C@]12CCC(Cl)CC1=CC[C@@H]1[C@@H]2CC[C@]2(C)C(=O)CC[C@@H]12 (stereo partly drawn) [3 chloro-5-androstene-17-one]
estrogenic, anti-estrogenic, androgenic, anti-androgenic activity (in words) [2]: without any demonstrable estrogenic, androgenic, anti-androgenic or anti-estrogenic activity

C[C@]12CC[C@H]3[C@@H](CCC4=CC(=O)CC[C@@]43C)[C@@H]1CC[C@@H]2O [testosterone]
rate of binding of topically applied 3H-DMBA to skin DNA (in words) [3]: without inhibitory effect

C[C@H]1CC[C@@]2(C)C(=CC[C@@H]3[C@@H]2CC[C@]2(C)C(=O)[C@H](C)C[C@@H]32)C1 [Compound 21]
mean weekly weight ± S.D. ([4]; week 0): 22.7 ± 1.9 grams | mean weekly weight ± S.D. ([4]; week 1): 20.1 ± 2.1 grams | mean weekly weight ± S.D. ([4]; week 2): 19.9 ± 2.3 grams | mean weekly weight ± S.D. ([4]; week 3): 22.2 ± 2.3 grams | Mean Uterine Weight ± S.D. (rat uterus [5]): 1.76 ± 0.21 mg/100 gm body weight | estrogenic, anti-estrogenic, androgenic, anti-androgenic activity (in words) [2]: neither estrogenic, anti-estrogenic, androgenic, nor anti-androgenic activity | G6PDH inhibition compared with DHEA (in words) [6]: more effective inhibitorsof G6PDH than is DHEA | inhibition at 1 µM [6]: 36% | inhibition at 10 µM [6]: 48% | Mean Seminal Vesicle plus Prostate Weight ± S.D. [7]: 5.1 ± 1.4 mg/100 gm body weight

C[C@H]1CC[C@@]2(C)C(=CC[C@@H]3[C@@H]2CC[C@]2(C)C(=O)CC[C@@H]32)C1 [drawing 87]
Inhibition of TPA Effect on Epidermis Following Oral Administration, relative to DHEA ([8]; Table 3, DHEA = 1×): ~ 3 × | G6PDH Inhibition relative to DHEA ([6]; Table 3, DHEA = 1×): ~ 1 ×

C[C@H]1CC[C@@]2(C)C(=CC[C@@H]3[C@@H]2CC[C@]2(C)C(=O)[C@H](F)C[C@@H]32)C1 [Compound 20]
anti-weight effect (in words) ([4]; 400 mg/kg repeated (DHEA), cancer preventive dosages (19, 20)): do not produce an anti-weight effect | SPECIFIC ACTIVITY ([3H]DMBA bound to skin DNA) ([9]; 100 mg/kg p.o.): 48.4 ± 2.6 cpm/ug DNA | SPECIFIC ACTIVITY ([3H]DMBA bound to skin DNA) ([9]; 200 mg/kg p.o.): 43.7 ± 1.5 cpm/ug DNA | TPA stimulation in 3H-thymidine incorporation (in words) ([8]; single administration): to a degree comparable to that produced by food restriction at doses well below 400 mg/kg | inhibition at 1 µM [6]: 55% | inhibition at 10 µM [6]: 46%
